Source: US10517844B2, “Inhibition of proline catabolism for the treatment of cancer and other therapeutic applications” (Buck Institute for Research on Aging, priority 2014, dated 2019)
Entries after “also recorded” stand apart in the source; their conditions may differ.

Assays:
PRODH [1] = target: T1, PRODH (Homo sapiens, UniProt O43272); experiment: NADH-generating mitochondrial PRODH bioassay; assay type: biochemical
T1 construct: Mitochondria freshly isolated from PPG pretreated (15 h) and washed (30 min) ZR-75-1 cells; endogenous in cells; host or cells: mitochondria isolated from ZR-75-1 human breast cancer cells
T1 sequence (O43272 1-600): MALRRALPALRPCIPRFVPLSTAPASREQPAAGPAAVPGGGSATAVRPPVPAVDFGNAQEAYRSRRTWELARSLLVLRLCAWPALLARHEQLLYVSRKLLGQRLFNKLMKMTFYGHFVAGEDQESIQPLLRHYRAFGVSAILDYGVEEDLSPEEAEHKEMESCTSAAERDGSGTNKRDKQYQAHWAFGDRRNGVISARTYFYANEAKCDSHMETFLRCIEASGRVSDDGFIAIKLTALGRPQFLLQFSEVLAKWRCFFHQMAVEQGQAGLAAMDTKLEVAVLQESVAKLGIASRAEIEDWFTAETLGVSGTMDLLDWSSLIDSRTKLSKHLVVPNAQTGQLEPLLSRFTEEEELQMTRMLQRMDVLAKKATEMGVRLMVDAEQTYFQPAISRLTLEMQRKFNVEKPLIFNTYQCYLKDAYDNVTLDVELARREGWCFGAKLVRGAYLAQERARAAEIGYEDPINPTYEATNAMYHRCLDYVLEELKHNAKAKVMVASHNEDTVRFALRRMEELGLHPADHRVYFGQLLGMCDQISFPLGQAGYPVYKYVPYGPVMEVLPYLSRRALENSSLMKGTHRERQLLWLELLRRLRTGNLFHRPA
Source text: Mitochondrial PRODH bioassays capable of measuring inhibitor activity are described in Goncalves et al. (2014) Redox Biol. 2: 901-909 (which is hereby incorporated by reference herein for this description). These include, inter alia: i) spectrophotometric detection of OAB reacted with proline generated P5C, ii) dual wavelength spectrophotometric detection (A566-A575) of endogenous cytochrome b566 reduction that occurs directly upon mitochondrial PRODH oxidation of proline, and iii) fluorescence spectrometry detection (lex 340 nm, lem 460 nm) of mitochondrial NADH levels as a function of substrate and inhibitor treatment. See details in Example below. The mitochondrial PRODH assay is described therein detects mitochondrial NADH production resulting downstream from PRODH production of P5C and then glutamate, while controlling for other sources of mitochondrial NADH production.
We have optimized our mitochondrial preparation technique and developed three different mitochondrial PRODH bioassays capable of measuring inhibitor activity which are now reported (Goncalves et al. (2014) Redox Biol. 2: 901-909); these include: i) spectrophotometric detection of OAB reacted with proline generated P5C, ii) dual wavelength spectrophotometric detection (A566-A575) of endogenous cytochrome b566 reduction that occurs directly upon mitochondrial PRODH oxidation of proline, and iii) fluorescence spectrometry detection (lex 340 nm, lem 460 nm) of mitochondrial NADH levels as a function of substrate and inhibitor treatment.
Briefly, in an exemplary protocol, cells are harvested from 2 to 4500 cm^2 dishes at 90% confluence, washed three times in ice-cold STE (250 mM sucrose, 5 mM Tris-HCl, 2 mM EGTA, pH7.4), scraped off, suspended in 50 ml STE and centrifuged for 10 min at 500 g. The pellet is resuspended in STE supplemented with 1% (w/v) fatty acid-free bovine serum albumin and homogenized (up to 20 strokes). The suspension is brought to 50 ml and centrifuged for 5 min at 1000 g. The supernatant is centrifuged for 10 min at 11,000 g. The pellet is resuspended in STE and centrifuged for 10 min at 10,000 g. The mitochondrial pellet is resuspended in STE and kept on ice. Protein is determined by Bradford assay(Biorad).
NAD(P)H is measured using 0.3 mg mitochondrial protein/ml at 37° C. in KHEPMB (KHE containing 5 mM K2HPO4, 2 mM MgCl2, 0.3% (w/v) fatty acid-free bovine serum albumin) plus 1 mM ADP and 2.5 μg/ml oligomycin. The reduction state of endogenous NAD(P)H Is determined by autofluorescence using the Pherastar microplate reader at λexcitation=340 nm, λemission=460 nm. NAD(P)H was assumed to be 0% reduced after 5 min without added substrate, then rotenone was added. The 100% reduced level was established with saturating substrate (e.g., 5 mM malate, glutamate and proline) and 4 μM rotenone. Intermediate values were determined as % reduced NAD(P)H relative to the 0% and 100% values.
For screening purposes, the NADH fluorescence bioassay can be routinely used as it is the most sensitive and amenable to higher throughput.

BT474 = experiment: Growth inhibition, drug combination; assay type: cell-based, human; conditions: for Growth inhibiting interaction with CB-839: 72 h
MCF7 = experiment: Growth inhibition / cell viability, drug combination; assay type: cell-based, human; conditions: for Growth inhibiting interaction with CB-839: 72 h; for Cell viability, interaction with CB-839: MCF7, single dose, 48 h
DU4475 = experiment: as above; assay type: cell-based, human; conditions: for Growth inhibiting interaction with CB-839: 72 h
ZR75-1 = experiment: Growth inhibition, drug combination; assay type: cell-based, human; conditions: for Growth inhibiting interaction with CB-839: 72 h
MCF10A cells = experiment: Cell viability, non-malignant cells; assay type: cell-based, human
[2] = system: multiple breast cancer cell lines; experiment: Growth inhibition in combination with CB-839; assay type: cell-based, human
breast cancer models = experiment: Interaction of PRODH inhibitors with p53 wt restoration; assay type: cell-based, human; conditions: various breast cancer models
Source text: Our recent studies have shown that p53 wt restoration by the MDM2 inhibitor MI-63 triggers early and very different mitochondrial bioenergetic and global metabolic pool changes between malignant (e.g., MCF7, ZR-75-1, ZR-75-30, DU4475) and non-malignant (e.g., MCF-10A) mammary epithelial systems (Yau et al. (2011) Amer. Assoc. Cancer Res. 52: a3797, 2011; Yau et al. (2012) Amer. Assoc. Cancer Res. 53: a5160). Having first observed that PRODH siRNA knockdown promotes apoptosis in p53 wt breast cancer cells, we then evaluated PRODH knockdown in combination with MI-63 induced p53 restoration. […] Knockdown of P5CDH (the next enzymatic step in proline catabolism) produced a similar but less pronounced pro-apoptotic response in combination with MI-63, convincing us that PRODH is the most appropriate therapeutic target for synthetic lethality. […] Equally relevant, since PRODH provides a bypass source of mitochondrial glutamate for glutamine-addicted (e.g., GLS1 overexpressing) cancers, particularly those most sensitive to clinically emergent GLS1 inhibitors like CB-839 (Katt and Cerione (2014) Drug Discov. Today, 19: 450-457; Gross et al. (2014) Mol. Cancer Ther. 13: 890-901), our new data also supports the fact that PRODH inhibition induces a synthetic lethal anticancer response in combination with GLS1 inhibition among our various breast cancer models.

[3] = system: DU4475 breast cancer cells; experiment: Apoptosis by cleaved PARP Western blot; assay type: cell-based, human; conditions: DU4475, combined with MI-63
PRODH [4] = conditions: cited from earlier work
[5] = system: malignant breast epithelial cells; experiment: Protein levels after p53 restoration by MI-63; assay type: cell-based, human
Source text: New cancer treatments based on the restoration or reactivation of p53 wt function were first envisioned over a decade ago, and multiple pharmacological strategies have since emerged from preclinical studies that now show great clinical promise (12-17), particularly against malignancies like breast cancers in which 75% of all newly diagnosed cases express wildtype p53 (TCGA Network (2012). Nature 490: 61-70). […] Likewise, p53 induced metabolic changes linking proline metabolism to the urea cycle (OAT) and to glutaminolysis (GLS2) and the TCA cycle have been observed in our model systems (Yau et al. (2012) Amer. Assoc. Cancer Res. 53: a5160).

ZR-75-1 = experiment: Protein degradation in treated culture (Western blot); assay type: cell-based, human
PRODH [6] = experiment: Dietary PPG in adult Drosophila, Sluggish-A phenotype; assay type: in vivo; conditions: dietary 5 mM x 48 h
Drosophila = Drosophila lifespan after dietary PPG during oogenesis; assay type: in vivo; conditions: dietary 5 mM x 24 h during oogenesis, 2nd day collected eggs, 70 days
Protocol: Female Drosophila were starved for 4 h, then combined with males on liquid 5% sucrose food with or without 5 mM PPG. After 24 h, females were transferred to egg collection containers, and eggs collected after 1, 2, and 3 days. Collected eggs were transferred to bottles of regular food, separately for each collection day. Larvae developed normally, were transferred to vials after eclosion; vials were exchanged thrice weekly throughout life.

[7] = ZR-75-1 cells pretreated 15 h, washed 30 min

Q: With `C#CC(C)NCC(=O)O` (racemic) [(R/S)-PPG] as the molecule, how does the PRODH inhibiting activity (PRODH [1]; mitochondrial PRODH assay) read?
A: retains PRODH inhibiting activity

Q: With `O=C1CC[C@@H](C(=O)O)O1` [Compound 5-oxo, (S)-(+)-5-oxo-2-tetrahydrofurancarboxylic acid] as the molecule, how does the “S versus R isomers in mitochondrial PRODH bioassay” value (PRODH [1]) read?
A: stereospecificity of S-5-oxo

Q: And the “PRODH enzymatic inhibition after washout” value (PRODH [1]; same washout (30 min))?
A: completely lost (reversed); also recorded: completely lost by washout

Q: And the Treatment interaction (BT474; BT474, 5-oxo (1 μM) + CB839 (1 μM))?
A: Additive

Q: What about the “Growth inhibiting interaction with CB-839” value (BT474; BT474, +5-oxo (5 mM)) of the same molecule?
A: Additive

Q: And the Treatment interaction (MCF7; MCF7, 5-oxo (1 μM) + CB839 (1 μM))?
A: Synergistic

Q: And the “Growth inhibiting interaction with CB-839” value (MCF7; MCF7, +5-oxo (5 mM))?
A: Synergistic

Q: What about the “Cell viability, interaction with CB-839” value (MCF7) of the same molecule?
A: additive interactions

Q: And the Treatment interaction (DU4475; DU4475, 5-oxo (1 μM) + CB839 (1 μM))?
A: Synergistic

Q: And the “Growth inhibiting interaction with CB-839” value (DU4475; DU4475, +5-oxo (5 mM))?
A: Synergistic

Q: And the Treatment interaction (ZR75-1; ZR75-1, 5-oxo (1 μM) + CB839 (1 μM))?
A: Synergistic

Q: And the “Growth inhibiting interaction with CB-839” value (ZR75-1; ZR75-1, +5-oxo (5 mM))?
A: Synergistic

Q: What about the “Cell viability / growth inhibition in non-malignant cells” value (MCF10A cells; combined with CB-839) of the same molecule?
A: no treatment effects

Q: What about the “Cell viability / growth inhibition in non-malignant cells” value (MCF10A cells; combined with CB-839, listed as S-5-oxo) of the same molecule?
A: lack of any growth inhibition

Q: What about the “Growth inhibition in combination with CB-839” value ([2]; within 48 h) of the same molecule?
A: additive growth inhibition

Q: What about the “Growth inhibition in combination with CB-839” value ([2]; within 72 h) of the same molecule?
A: synergistic growth inhibition

Q: What about the “Interaction with p53 wt restoration” value (breast cancer models) of the same molecule?
A: synthetic lethal interactions

Q: Which results are given for `O=C(O)[C@@H]1CCCO1` [L-THFA, L-tetrahydro-2-furoic acid]?
A: Viable cell growth in culture (DU4475; DU4475, combined with MI-63): synthetic lethality effectiveness; also recorded: synergistically reduces viable cell growth; Apoptosis (c PARP production) over MI-63 treatment alone [3]: ~4 fold; Interaction with p53 wt restoration (breast cancer models): synthetic lethal interactions; Ki (PRODH [4]): 300 µM

Q: For `CC(C)(C)C[C@H]1N[C@@H](C(=O)NCCN2CCOCC2)[C@H](c2cccc(Cl)c2F)[C@@]12C(=O)Nc1cc(Cl)ccc12` [MI-63], which “Induction of PRODH protein levels” value [5] is on record?
A: ≥ 5 fold

Q: What about the “P5C reductase (PYCR1) levels” value [5] of the same molecule?
A: coordinate decrease

Q: What about the P5CDH protein level [5] of the same molecule?
A: no change

Q: Which “Growth inhibiting interaction with CB-839” value (BT474; BT474, +Nutlin-3a (5 μM)) does the source give for `COc1ccc(C2=N[C@@H](c3ccc(Cl)cc3)[C@@H](c3ccc(Cl)cc3)N2C(=O)N2CCNC(=O)C2)c(OC(C)C)c1` [Nutlin-3a, reference compound] here?
A: No interaction

Q: And the “Growth inhibiting interaction with CB-839” value (MCF7; MCF7, +Nutlin-3a (5 μM))?
A: Additive

Q: What about the “Growth inhibiting interaction with CB-839” value (DU4475; DU4475, +Nutlin-3a (5 μM)) of the same molecule?
A: Synergistic

Q: What about the “Growth inhibiting interaction with CB-839” value (ZR75-1; ZR75-1, +Nutlin-3a (5 μM)) of the same molecule?
A: Additive

Q: Which “PRODH enzymatic inhibition compared at equimolar inhibitor concentration” value (PRODH [1]; 2 mM) does the source give for `C#CCNCC(=O)O` [PPG, N-propargylglycine] here?
A: significantly greater PRODH enzymatic inhibition over S-5-oxo

Q: What about the “Malate metabolism (NADH formation) by isolated mitochondria” value (PRODH [1]; [7]) of the same molecule?
A: not affected; also recorded: fully capable of metabolizing malate

Q: And the “Proline metabolism (NADH formation) by isolated mitochondria” value (PRODH [1]; [7])?
A: remain unable to metabolize proline; also recorded: remained completely unable to metabolize proline

Q: And the “Cell viability, interaction with CB-839” value (MCF7)?
A: additive interactions

Q: What about the “Cell viability / growth inhibition in non-malignant cells” value (MCF10A cells; combined with CB-839) of the same molecule?
A: no treatment effects; also recorded: lack of any growth inhibition

Q: What about the “Growth inhibition in combination with CB-839” value ([2]; within 48 h) of the same molecule?
A: additive growth inhibition

Q: What about the “Growth inhibition in combination with CB-839” value ([2]; within 72 h) of the same molecule?
A: synergistic growth inhibition

Q: And the “Time of exposure to PRODH protein degradation” value (ZR-75-1)?
A: ≤ 24 h

Q: And the “Cytoplasmic FAD containing protein MTHFR decline” value (ZR-75-1; ZR-75-1, 24-72 h)?
A: does not

Q: And the “Mitochondrial complex-1 protein NDUFS1 level” value (ZR-75-1; ZR-75-1, 24-72 h)?
A: also declines

Q: What about the “Degradation of PRODH protein” value (ZR-75-1; ZR-75-1 culture treatment, within 24-72 h) of the same molecule?
A: 30-60%

Q: What about the Fly viability (PRODH [6]) of the same molecule?
A: without loss of fly viability

Q: And the “PRODH inhibition in vivo (Sluggish-A phenotype)” value (PRODH [6])?
A: completely inhibits PRODH in vivo

Q: And the “Median and maximum lifespan” value (Drosophila)?
A: significantly extends median and maximum lifespan

Q: And the “Interaction with p53 wt restoration” value (breast cancer models)?
A: synthetic lethal interactions
